In patent publication US20120015907A1, “Furopyridine compounds and uses thereof” (NOVARTIS AG, priority 2010, published 2012):

Assays:
[1] = system: HCV replicon I389luc-ubi-neo/NS3-3'/ET in ET (Huh-lucubineo-ET) cells; test: Replicon assay (Biological Example 2), luciferase read-out; format: cell-based; details: Hepatitis C virus, luciferase activity 48 hours after compound addition
Procedure, shortened: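 ET cells stably carry the replicon with adaptive mutations E1202G, […] and K1846T. Compound is added 24 h after plating at 0.1 nM–50 μM final (10-point, 3-fold dilutions) with 0.5% DMSO, and luciferase is read 48 h later. EC50 comes from a Hill-equation fit of % inhibition versus no-compound control.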

HCV polymerase = target: T1, HCV polymerase (Hepatitis C virus genotype 1b, UniProt Q9WMX2); test: biochemical; details: polymerase assay of Biological Example 1; read-out: NS5B polymerase IC50
T1 construct: (His)6 (C)

Row | Compound | IC50 [1] | IC50 (HCV polymerase)
1 | CNC(=O)c1c(-c2ccc(F)cc2)oc2nc(N(CCC(C)S(C)(=O)=O)S(C)(=O)=O)c(C3CC3)cc12 (stereo not drawn) [Example 26.6, 5-cyclopropyl-2-(4-fluorophenyl)-N-methyl-6-(N-(3-(methylsulfonyl)butyl)methylsulfonamido)furo[2,3-b]pyridine-3-carboxamide] | ≤ 100 nM | 4 nM
2 | CNC(=O)c1c(-c2ccc(C)cc2)oc2nc(N(CCCC3CCCS3(=O)=O)S(C)(=O)=O)c(I)cc12 (stereo not drawn) [Example 18.99, 6-{[3-(1,1-Dioxo-tetrahydrophiophen-2-yl)-propyl]-methanesulfonyl-amino}-5-iodo-2-p-totyl-furo[2,3-b]pyridine-3-carboxylic acid methylamide] | ≤ 100 nM | 5 nM
3 | CNC(=O)c1c(-c2ccc(Cl)cc2)oc2nc(N(C)S(C)(=O)=O)c(C3CC3)cc12 [Example 2.96] | ≤ 100 nM | 24 nM
4 | CNC(=O)c1c(-c2ccc(C)cc2)oc2nc(N(CCC3CCS(=O)(=O)C3)S(C)(=O)=O)c(C3CC3)cc12 (stereo not drawn) [Example 26.1, 5-Cyclopropyl-6-{[2-(1,1-dioxo-tetrahydro-thiophen-3-yl)-ethyl]-methanesulfonyl-amino}-2-p-tolyl-furo[2,3-b]pyridine-3-carboxylic acid methylamide] | ≤ 100 nM | 1 nM
5 | CNC(=O)c1c(-c2ccc(Cc3ccccc3)cc2)oc2nc(N(CCCCC(=O)O)S(C)(=O)=O)c(C3CC3)cc12 [Example 27.6, 5-(N-(2-(4-benzylphenyl)-5-cyclopropyl-3-(methylcarbamoyl)furo[2,3-b]pyridin-6-yl)methylsulfonamido) pentanoic acid] | ≤ 100 nM | 1 nM
6 | CNC(=O)c1c(-c2ccc(F)cc2)oc2nc3c(cc12)C(C)OCCN3S(C)(=O)=O (stereo not drawn) [Example 36.2, 2-(4-Fluoro-phenyl)-9-methanesulfonyl-5-methyl-5,7,8,9-tetrahydro-1,6-dioxa-9,10-diaza-cyclohepta[f]indene-3-carboxylic acid methylamide] | ≤ 100 nM | 35 nM
7 | CNC(=O)c1c(-c2ccc(Cl)cc2)oc2nc(N(CCCCS(C)(=O)=O)S(C)(=O)=O)c(C3CC3)cc12 [Example 25.8] | ≤ 100 nM | 1 nM
8 | CNC(=O)c1c(-c2ccc(F)cc2)oc2nc(N(C)S(C)(=O)=O)c(C#CCCC(=O)O)cc12 [Example 5, 5-(2-(4-fluorophenyl)-3-(methylcarbamoyl)-6-(N-methylmethylsulfonamido)furo[2,3-b]pyridin-5-yl)pent-4-ynoic acid] | ≥ 5000 nM | 256 nM
9 | CNC(=O)c1c(-c2ccc(C)cc2)oc2nc(N(CC[C@@H]3C[C@H]3C(=O)O)S(C)(=O)=O)c(C3CC3)cc12 [Example 28.1, (1R,2S)-2-(2-(N-(5-cyclopropyl-3-(methylcarbamoyl)-2-p-tolylfuro[2,3-b]pyridin-6-yl)methylsulfonamido)ethyl) cyclopropanecarboxylic acid] | ≤ 100 nM | 2 nM
10 | CNC(=O)c1c(-c2ccc(C)cc2)oc2nc(N(CCCC(C(=O)O)c3ccccc3)S(C)(=O)=O)c(C3CC3)cc12 (stereo not drawn) [Example 28.5, 5-(N-(5-cyclopropyl-3-(methylcarbamoyl)-2-p-tolylfuro[2,3-b]pyridin-6-yl)methylsulfonamido)-2-phenylpentanoic acid] | ≤ 100 nM | 1 nM
11 | CNC(=O)c1c(-c2ccc(F)cc2)oc2nc(N(CCC(C)O)S(C)(=O)=O)c(C3CC3)cc12 (stereo not drawn) [Example 26.5, 5-cyclopropyl-2-(4-fluorophenyl)-6-(N-(3-hydroxybutyl)methylsulfonamido)-N-methylfuro[2,3-b]pyridine-3-carboxamide] | ≤ 100 nM | 10 nM
12 | CNC(=O)c1c(-c2ccc(F)cc2)oc2nc(N(CCCC3CCCS3(=O)=O)S(C)(=O)=O)c(C3CC3)cc12 (single isomer, unassigned) [Example 24.5, 5-Cyclopropyl-6-{[3-(1,1-dioxo-tetrahydrothiophen-2-yl)-propyI]-methanesulfonyl-amino}-2-(4-fluoro-phenyl)-furo[2,3-b]pyridine-3-carboxylic acid methylamide] | ≤ 100 nM | 1 nM
